Patent US4032659A (priority 1975, dated 1977)
“Also recorded” adds a separate entry of the source. Read-outs that look alike come from different tables or passages of the source.

Tests used:
[1] = system: Influenza B Massachusetts virus; conditions: larger doses, different dose schedules; cited from earlier work
Influenza PR 8 virus = experiment: Chemoprophylaxis of Influenza PR 8 virus infection in mice; type: in vivo, mouse
[2] = system: Influenza Ann Arbor virus; experiment: Chemoprophylaxis of Influenza Ann Arbor (A1) virus infection in mice; type: in vivo, mouse
virus infections = experiment: Antiviral screening program, several viruses; conditions: mouse, in vivo
[3] = system: Influenza B Maryland virus; experiment: Chemoprophylaxis of Influenza B Maryland virus infection in mice; type: in vivo, mouse; conditions: for No. animals surviving when 18/20 of controls are dead / Survivors: oral
pox virus = experiment: Pox virus infections of mice; conditions: mouse, in vivo
Herpes virus [4] = type: in vivo, mouse
Vaccinia virus [5] = type: cell-based, fertile eggs; conditions: various concentrations
Herpes virus [6] = experiment: Herpes virus in eggs (chick embryo survival); type: in vivo, chicken eggs; conditions: for No. Living Longer Than Controls, total: all doses; for Deaths on day 1 / Deaths on day 3 / Deaths on day 4 / Total Deaths 4th Day / Deaths on day 2: 12 eggs
Mengo virus = Mengo virus infection in mice; type: in vivo, mouse; conditions: oral
Description: The results are illustrated in Table 43.

Vaccinia virus [7] = type: in vivo; conditions: scarified rabbit skin
Neurovaccinia virus = experiment: Neurovaccinia (intracerebral) in mice; conditions: mouse, in vivo
Influenza A PR8 virus = system: Influenza A PR8 virus; parameters: dose or concentration left out as unconfirmed; conditions: cited from earlier work
[8] = system: Influenza B Massachusetts virus; experiment: Chemoprophylaxis of Influenza B Massachusetts virus infection in mice; type: in vivo, mouse; conditions: oral
Description: The activity of four compounds on Influenza B Mass. was tested in mice.
A portion of a commercially available sample of amantadine was recrystallized from isopropanol. The activity of the material against Influenza B Mass. was tested for the sample as obtained, the recrystallized portion, and the mother liquor obtained from recrystallizing the portion.

Columbia SK Polio virus = conditions: mouse, in vivo

NC12CC3CC(CC(C3)C1)C2 [Amantadine, amantadine, reference compound]
chemoprophylaxis (in words) [1]: ineffective against Influenza B Massachusetts | instances of a statistically significant number of survivors (Influenza PR 8 virus; 41 tests): one single instance | instances of increased geometric mean survival time (Influenza PR 8 virus; 41 tests): 11 | number of survivors in the single significant instance (Influenza PR 8 virus; 41 tests): 3 | tests with survivors (of 18 tests) ([2]; 18 tests): 5 | activity (in words) (virus infections): inactive against all of the other viruses in the test system

CN1C(=O)/C(=N\NC(N)=S)c2ccccc21 [Methisazone, 1-methylindole-2,3-dione,3-thiosemicarbazone, reference compound]
No. animals surviving after 5 days ([2]; oral, total dose 5 μg): 4 | Survivors ([2]; oral, total dose 5 μg): 0 | No. animals surviving after 5 days ([2]; oral, total dose 50 μg): 3 | Survivors ([2]; oral, total dose 50 μg): 0 | No. animals surviving after 5 days ([2]; oral, total dose .00005 μg): 6 | Survivors ([2]; oral, total dose .00005 μg): 0 | No. animals surviving after 5 days ([2]; oral, total dose .0005 μg): 5 | Survivors ([2]; oral, total dose .0005 μg): 0 | No. animals surviving after 5 days ([2]; oral, total dose .005 μg): 5 | Survivors ([2]; oral, total dose .005 μg): 0 | No. animals surviving after 5 days ([2]; oral, total dose .05 μg): 4 | Survivors ([2]; oral, total dose .05 μg): 0 | No. animals surviving after 5 days ([2]; oral, total dose .5 μg): 6 | Survivors ([2]; oral, total dose .5 μg): 0 | activity ([3]; mouse, in vivo): active against Influenza B Maryland virus | No. animals surviving when 18/20 of controls are dead ([3]; total dose 6 ng): 4 | Survivors ([3]; total dose 6 ng): 2 | No. animals surviving when 18/20 of controls are dead ([3]; total dose 60 ng): 4 | Survivors ([3]; total dose 60 ng): 2 | No. animals surviving when 18/20 of controls are dead ([3]; total dose 600 ng): 2 | Survivors ([3]; total dose 600 ng): 2 | No. animals surviving when 18/20 of controls are dead ([3]; total dose 6 μg): 4 | Survivors ([3]; total dose 6 μg): 1 | activity (in words) (virus infections): found to have activity | activity (pox virus): active against pox virus infections of mice | No. animals surviving after 6 days (Herpes virus [4]; mouse, in vivo, po): 1 | No. animals surviving after 6 days (Herpes virus [4]; oral, total dose .00005 μg): 0 | No. animals surviving after 6 days (Herpes virus [4]; oral, total dose .0005 μg): 0 | No. animals surviving after 6 days (Herpes virus [4]; oral, total dose .005 μg): 0 | Survivors (Herpes virus [4]; oral, total dose .05 μg): 0

NNC(N)=S [Thiosemicarbazide, thiosemicarbazide]
effect on pox formation on the membrane (Vaccinia virus [5]): No effect on pox formation on the membrane could be observed | No. Living Longer Than Controls, total (Herpes virus [6]): 7 | Deaths on day 1 (Herpes virus [6]; dose 2 μg): 3 | Deaths on day 3 (Herpes virus [6]; dose 2 μg): 5 | Deaths on day 4 (Herpes virus [6]; dose 2 μg): 3 | Total Deaths 4th Day (Herpes virus [6]; dose 2 μg): 12 | Deaths on day 2 (Herpes virus [6]; dose 20 μg): 4 | Deaths on day 3 (Herpes virus [6]; dose 20 μg): 6 | Total Deaths 4th Day (Herpes virus [6]; dose 20 μg): 12 | Deaths on day 1 (Herpes virus [6]; dose .00005 μg): 2 | Deaths on day 2 (Herpes virus [6]; dose .00005 μg): 5 | Deaths on day 3 (Herpes virus [6]; dose .00005 μg): 2 | Total Deaths 4th Day (Herpes virus [6]; dose .00005 μg): 10 | Deaths on day 1 (Herpes virus [6]; dose .0005 μg): 2 | Deaths on day 2 (Herpes virus [6]; dose .0005 μg): 3 | Deaths on day 3 (Herpes virus [6]; dose .0005 μg): 2 | Deaths on day 4 (Herpes virus [6]; dose .0005 μg): 3 | Total Deaths 4th Day (Herpes virus [6]; dose .0005 μg): 10 | Deaths on day 1 (Herpes virus [6]; dose .005 μg): 4 | Deaths on day 2 (Herpes virus [6]; dose .005 μg): 3 | Deaths on day 3 (Herpes virus [6]; dose .005 μg): 3 | Total Deaths 4th Day (Herpes virus [6]; dose .005 μg): 10 | Deaths on day 2 (Herpes virus [6]; dose .05 μg): 3 | Deaths on day 3 (Herpes virus [6]; dose .05 μg): 5 | Total Deaths 4th Day (Herpes virus [6]; dose .05 μg): 9 | Deaths on day 1 (Herpes virus [6]; dose .5 μg): 3 | Deaths on day 2 (Herpes virus [6]; dose .5 μg): 4 | Deaths on day 3 (Herpes virus [6]; dose .5 μg): 2 | Deaths on day 4 (Herpes virus [6]; dose .5 μg): 2 | Total Deaths 4th Day (Herpes virus [6]; dose .5 μg): 11 | Survivors (Mengo virus; total dose .0000005 μg): 0 | No. animals surviving after 6 days (Mengo virus; total dose .000005 μg): 2 | Survivors (Mengo virus; total dose .000005 μg): 1 | No. animals surviving after 6 days (Mengo virus; total dose .00005 μg): 5 | Survivors (Mengo virus; total dose .00005 μg): 1 | Survivors (Mengo virus; total dose .0005 μg): 0 | Survivors (Mengo virus; total dose .005 μg): 0 | protection (Influenza PR 8 virus; intraperitoneal): almost no protection | Survivors (Influenza PR 8 virus; intraperitoneal, total dose 5 μg): 0 | Survivors (Influenza PR 8 virus; intraperitoneal, total dose .005 μg): 0 | Survivors (Influenza PR 8 virus; intraperitoneal, total dose .05 μg): 0 | Survivors (Influenza PR 8 virus; intraperitoneal, total dose .5 μg): 0 | Survivors (Influenza PR 8 virus; oral, total dose .005 μg): 3 | Survivors (Influenza PR 8 virus; oral, total dose .5 μg): 0 | Survivors (Influenza PR 8 virus; subcutaneous, total dose 5 μg): 3 | Survivors (Influenza PR 8 virus; subcutaneous, total dose .0005 μg): 0 | Survivors (Influenza PR 8 virus; subcutaneous, total dose .005 μg): 0 | Survivors ([2]; oral, total dose .5 μg): 0 | activity (in words) (virus infections): active against Influenza PR 8, Vaccinia in the mouse tail, Mengo virus, Herpes virus in mice and eggs, Influenza virus, and Vaccinia virus in rabbits | No. animals surviving when 19/20 controls are dead (Herpes virus [4]; oral, total dose 5 μg): 0 | No. animals surviving when 17/20 controls are dead (Herpes virus [4]; oral, total dose .000005 μg): 0 | No. animals surviving when 17/20 controls are dead (Herpes virus [4]; oral, total dose .00005 μg): 3 | Survivors (Herpes virus [4]; oral, total dose .00005 μg): 3 | No. animals surviving after 7 days (Herpes virus [4]; oral, total dose .0005 μg): 6 | No. animals surviving when 17/20 controls are dead (Herpes virus [4]; oral, total dose .0005 μg): 0 | No. animals surviving after 7 days (Herpes virus [4]; oral, total dose .005 μg): 6 | No. animals surviving when 17/20 controls are dead (Herpes virus [4]; oral, total dose .05 μg): 0 | effect on pox formation (Vaccinia virus [7]): highly significant diminution in the vaccinia pox formation | surviving animals (three instances, single dose level) (Neurovaccinia virus): one

CC(C=NNC(=N)N)=NNC(=N)N [methyl-GAG, Methylgloxal-bis-guanylhydrazone]
inhibition (Influenza A PR8 virus; lower limit): Ninety | Toxicity (Influenza A PR8 virus; upper limit): toxic

NNC(N)=O [semicarbazide]
effect on pox formation on the membrane (Vaccinia virus [5]): No effect on pox formation on the membrane could be observed | No. Living Longer Than Controls, total (Herpes virus [6]): 10 | Survivors (Influenza PR 8 virus; oral, total dose .000005 μg): 0 | No. animals surviving when 18/20 of controls are dead (Influenza PR 8 virus; oral, total dose .00005 μg): 0 | Survivors (Influenza PR 8 virus; oral, total dose .00005 μg): 0 | No. animals surviving when 18/20 of controls are dead (Influenza PR 8 virus; oral, total dose .0005 μg): 0 | Survivors (Influenza PR 8 virus; oral, total dose .0005 μg): 0 | No. animals surviving when 18/20 of controls are dead (Influenza PR 8 virus; oral, total dose .005 μg): 0 | Survivors (Influenza PR 8 virus; oral, total dose .005 μg): 0 | No. animals surviving when 18/20 of controls are dead (Influenza PR 8 virus; oral, total dose .05 μg): 4 | Survivors (Influenza PR 8 virus; oral, total dose .05 μg): 4 | total number of survivors ([2]; oral, four dose levels): 10 | Survivors ([2]; subcutaneous, total dose .05 μg): 0 | No. animals surviving when 100% controls are dead ([8]; total dose .000005 μg): 0 | Survivors ([8]; total dose .000005 μg): 0 | No. animals surviving when 100% controls are dead ([8]; total dose .00005 μg): 0 | Survivors ([8]; total dose .00005 μg): 0 | No. animals surviving when 100% controls are dead ([8]; total dose .0005 μg): 1 | Survivors ([8]; total dose .0005 μg): 0 | No. animals surviving after 5 days ([8]; total dose .005 μg): 6 | Survivors ([8]; total dose .005 μg): 0 | No. animals surviving after 5 days ([8]; total dose .05 μg): 6 | No. animals surviving when 100% controls are dead ([8]; total dose .05 μg): 1 | Survivors ([8]; total dose .05 μg): 0 | No. animals surviving after 5 days ([8]; total dose .5 μg): 4 | No. animals surviving when 100% controls are dead ([8]; total dose .5 μg): 1 | Survivors ([8]; total dose .5 μg): 0 | Survivors (Herpes virus [4]; oral, total dose .000005 μg): 0 | Survivors (Herpes virus [4]; oral, total dose .5 μg): 0

CCC(C)=NNC(N)=S [thiosemicarbazone]
statistically significant geometric mean survival time (Columbia SK Polio virus): two instances of a statistically significant geometric mean survival time | protection against death (Influenza PR 8 virus; drinking water 24 h pre- and 24 h post-infection): significantly protected against death | effect on pox formation (Vaccinia virus [7]): dramatic reduction and even elimination of all pox formation over several dilutions; also recorded: highly significant diminution of pox formation
